Source: paper PMC7915858, “Complementary Effects of Carbamylated and Citrullinated LL37 in Autoimmunity and Inflammation in Systemic Lupus Erythematosus” (International Journal of Molecular Sciences, 2021)

Legend:
SLE CD4 T-cells (CXCR5) = assay: CXCR5 (TFH marker) expression on stimulated CD4 T-cells, flow cytometry; assay type: cell-based, human
Text: Antibodies to CD4, CD8, CD3 conjugated with various fluorochromes (FITC, phycoerythrin (PE), peridinin-chlorophyll-protein (PerCp), allophycocyanin (APC), PE-Cy7) were from BD Biosciences or eBiosciences (San Diego, CA). For further LL37-specific T-cell characterization and B-cell characterization we used: APC-Cy7-CXCR5 (FAB190), APC or PE-CD38, CD19, CD20, CD27, antibodies, purchased from BD Biosciences, eBiosciences, Novus Biologicals (Littleton, CO), R&D (Minneapolis, MN). Appropriate isotype-matched controls were purchased from the same companies. PerCp-7-AAD was from BD Pharmingen, DAPI from Invitrogen (Thermo Fisher, Carlsbad, CA, USA).
PBMCs were purified from EDTA-treated blood, on Ficoll-Hypaque (Pharmacia Fine Chemicals, Uppsala, Sweden) and were incubated (10^5 cells/well) in 96-well-flat-bottom-microplates (BD) in T-cell-medium (RPMI 1640, 10% heat-inactivated human serum, HS, Gibco), 2 mM L-glutamine, 10 U/mL penicillin and 100 μg/mL streptomycin), with/without peptides. We performed assays on fresh cells, within 1-to-3 h from collection or on PBMCs frozen in 90% FCS−10% DMSO, whose viability we assessed by Trypan blue exclusion, with an inverted microscope. Recovery of live cells was between 65 and 85% of the frozen number. At day 3 and 5, BrdU was added (1 μg/mL). BrdU-incorporation was detected by APC-labeled anti-BrdU antibody (BD Pharmingen), after surface staining for CD4, CD3, CD8 and analyzed by flow cytometry (Gallios, BeckmanCoulter, Brea, CA, USA). Internal control for T-cell viability and proliferation was PHA treatment (2 μg/mL). SI for proliferation was calculated by dividing percent of BrdU-staining in the presence of each peptide antigen (LL37, carb-LL37, cit-LL37, LL37 reverse, REV; cit-LL37 reverse, cit-REV; carb-LL37 reverse, carb-REV) by the percent obtained in the untreated cells. SI for proliferation was considered positive when the values of percent of BrdU positive cells was three times higher than the values obtained with the control peptides (SI > 3). Assays were repeated twice with each patient. In rare cases in which background proliferation (culture with REV, cit-REV, carb-REV), exceeded antigen-specific proliferation (that is response to LL37, carb-LL37, cit-LL37), the assay was repeated three times. Concomitant phenotype analysis of LL37-responder T-cells included staining for CD3, CD4, CD8, CXCR5 (CXCR5 was assessed on BrdU/CD3/CD4-positive cells).

HLA-DR15 (DRB1*1501) = HLA-DR15 (DRB1*1501) (Homo sapiens, UniProt P01903+P01911); assay: Peptide-MHC class II binding (HLA-DR folding assay, LOCI/AlphaScreen); conditions: peptide titrated, 48 h at 18 °C, LOCI, two experiments, KD values only in picture (Table S2)
Procedure: (§1) Peptide-MHC-binding assays was performed by ImmunAware (Horsholm, Denmark). Binding was measured using a Luminescent Oxygen Channeling Immunoassay (LOCI), marketed by Perkin Elmer (Hopkinton, MA, USA) as AlphaScreen. This is a nonradioactive bead-based homogenous proximity assay, where the donor beads containing a photosensitizer compound, upon excitation with light at a 680 nm wavelength, converts ambient oxygen to energy-rich, short-lived singlet oxygen; this latter is transferred to acceptor beads, in close proximity only. The acceptor beads can respond to a single oxygen with a luminescence/fluorescence cascade, leading to an amplified signal in the 520–620 nm range. There is a tag binding to the donor beads: a biotin group engineered into the HLA β chain.
(§2) The acceptor beads are linked instead to a conformation-dependent HLA class II specific antibody (L243). Thus, only when a peptide binds well the HLA class II molecule, a corrected folded HLA class II molecule is formed and can be recognized by the L243 antibody. Biotinylated recombinant HLA class II molecules were diluted from an 8 M urea buffer into a folding buffer (PBS, 20% glycerol, Protease inhibitor mix). Different peptide concentrations, between 0.13 nM and 10,000 nM, were added into the assay. The tested peptides were titrated in 5-to-8 five-fold concentration, […]. The reaction mixtures were incubated for 48 h at 18 °C to allow peptide-HLA-complex formation to reach a steady state. After incubation, 15 μL of the folding mixture was transferred to a 384-well Optiplate (Perkin Elmer), followed by addition of 15 μL of a solution containing L243 acceptor beads and streptavidin donor beads (final concentration of beads was 5 μL/mL). The plates were incubated over night at 18 °C and then measured in enVisionTM, Perkin Elmer. Assay signals measured in OD450 were plotted against the offered peptide concentrations and analyzed by non-linear regression using GraphPad Prism. The peptide concentration resulting in half saturation, the half maximal effective concentration (EC50), was estimated by fitting the experimental data to the equation: Y = Bmax*X/(KD + X), where Y is the OD450 measurement of complexes formed and X is the concentration of ligand (peptide) offered. The EC50 approximates the KD as long as the receptor concentration used is less than the KD, thus avoiding ligand depletion.

HLA-DR1 (DRB1*0101) = HLA-DR1 (DRB1*0101) (Homo sapiens, UniProt P01903+P01911, /P40L/Q125E/R42F/V115G/Y59C); assay: as above; conditions: peptide titrated, 48 h at 18 °C, LOCI, two experiments, KD values only in picture (Table S2)
Procedure: as §1, §2

[1] = test system: native LL37-P1-specific T-cells (HLA-DRB1*1501 tetramer); assay: Peptide-MHC-tetramer staining of T-cells after PBMC stimulation; assay type: cell-based, human
Procedure: Peptide-MHC-tetramers were from ImmunAware (Denmark). Staining was performed for 40 min with 1microL of tetramer suspension at 37 °C, followed by staining for CD4 (4 °C, 20 min), without washing. After incubation with anti-CD4 antibody, cells were washed, resuspended in PBS and kept at 4 °C. Before flow cytometry-acquisition, cells were labeled with PercP-conjugated 7-AAD to exclude dead cells. The peptide-MHC-tetramers used in this study are: the HLA-DR15-P1: tetramer of HLA-DRB1*1501 LLGDFFRKSKEKIGK (corresponding to the first aa at the NH2-term of the mature native LL37), (PE-conjugated) and the control peptide-MHC-tetramer called DR15-ctr: tetramer of HLA-DRB1*1501 […]1-169-185 (PE-conjugated). The other couple of peptide-MHC-tetramers used were HLA-DRB5*0101 loaded with the same LL37 epitope as above and the control tetramer HLA-DRB5*0101 loaded with the control epitope PVSKMRMATPLLMQA (CLIP-derived).

[2] = 7 days carb-LL37 stimulation, control tetramer, tetramer/CXCR5 plots
[3] = 7 days carb-LL37 stimulation, tetramer loaded with native LL37 epitope P1, tetramer/CXCR5 plots

Q: “L*LGDFFRK*SK*EK*IGKEFK*RIVQRIK*DFLRNLVPRTES [carb-LL37]” was tested. Which “Correlation of CXCR5 fold-increase with anti-native LL37 antibody response” value (SLE CD4 T-cells (CXCR5); Spearman, Figure 4e) did it give?
A: The value was “significantly correlated”.

Q: What about the “Correlation of T-cell proliferation with CXCR5 up-regulation” value (SLE CD4 T-cells (CXCR5); Spearman, Figure 3d) of the same substance?
A: Its value is “positive and significance correlation”.

Q: And the “CXCR5 up-regulation on antigen-specific T-cells” value (SLE CD4 T-cells (CXCR5); fold-increase with respect to T-cells proliferating to control carb-REV)?
A: The value was “up-regulation of the TFH cell marker CXCR5”.

Q: What about the “CXCR5-positive cells among total CD3+CD4+ cells” value (SLE CD4 T-cells (CXCR5); representative plot, Figure S5b left panels) of the same substance?
A: The value was 8.95%.

Q: And the “CXCR5-positive cells among CD3+CD4+BrdU+ cells” value (SLE CD4 T-cells (CXCR5); representative plot, Figure S5b middle panels)?
A: Its value is 39.4%.

Q: What about the “CXCR5-positive cells among CD3+CD4+BrdU- cells” value (SLE CD4 T-cells (CXCR5); representative plot, Figure S5b right panels) of the same substance?
A: Its value is 3.08%.

Q: What about the “Binding to HLA-DRB1*1501 compared to cit-LL37” value (HLA-DR15 (DRB1*1501)) of the same substance?
A: Its value is “equivalent to the binding efficiency of cit-LL37”.

Q: What about the “Binding to HLA-DRB1*1501 compared to cit-LL37” value (HLA-DR15 (DRB1*1501); listed as Carb-LL37) of the same substance?
A: The value was “binds HLA-DR alleles similarly to cit-LL37”.

Q: What about the “Binding to HLA-DRB1*0101 compared to cit-LL37” value (HLA-DR1 (DRB1*0101)) of the same substance?
A: Its value is “equivalent to the binding efficiency of cit-LL37”.

Q: And the “Binding to HLA-DRB1*0101 compared to cit-LL37” value (HLA-DR1 (DRB1*0101); listed as Carb-LL37)?
A: Its value is “binds HLA-DR alleles similarly to cit-LL37”.

Q: What about the “Percent printed first in Figure S7b plot (gate not recoverable from text)” value [1, 2] of the same substance?
A: The value was 0.0%.

Q: What about the “Percent printed second in Figure S7b plot (gate not recoverable from text)” value [1, 2] of the same substance?
A: The value was 0.19%.

Q: And the “Percent printed third in Figure S7b plot (gate not recoverable from text)” value [1, 2]?
A: The value was 0.01%.

Q: What about the “Percent printed second in Figure S7a plot (gate not recoverable from text)” value [1, 3] of the same substance?
A: Its value is 2.00%.

Q: What about the “Percent printed third in Figure S7a plot (gate not recoverable from text)” value [1, 3] of the same substance?
A: Its value is 2.20%.

Q: And the “CXCR5 expression on LL37-specific (tetramer-positive) T-cells” value ([1]; SLE PBMC stimulated, Figure 5d)?
A: The value was “variable but significant expression of the TFH marker CXCR5”.

Q: And the “Expansion of T-cells specific for the native LL37 epitope” value ([1]; SLE PBMC, tetramer staining, versus control tetramer)?
A: Its value is “expansion of T-cells specific for the native LL37 epitope”.
